According to patent publication US20250032623A1, “HETEROBIFUNCTIONAL COMPOUNDS AND THEIR USE IN TREATING DISEASE” (HALDA THERAPEUTICS OPCO, INC., priority 2021, published 2025):
pIC50: −log10 of the molar value.

Columns and labels:
[1] = test system: HEK293 cells; test: Cellular growth inhibition assay (CellTiter-Glo), HEK293 cells; assay type: cell-based; conditions: Homo sapiens, 72 h, three days compound treatment, CellTiter-Glo 2.0, read-out: CTG HEK293 GI50
Summary of the method: (§1)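 GI50 derived by four-parameter regression of luminescence (CellTiter-Glo 2.0) at Day 0 and Day 3, normalized to DMSO wells. Cells (HeLa, HEK293; 500/well, DMEM plus 10% FBS) were dosed with compound dilutions 24 h post-seeding and exposed for three days at 37 °C.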

[2] = biological target: T1, KRAS G12C (Homo sapiens, UniProt P01116, G12C); test: KRAS G12C nucleotide exchange assay (SOS1 mediated, HTRF); assay type: biochemical; conditions: 1 hr pre-incubation at RT, read-out: IC50 (inhibition of KRas G12C)
T1 construct: Kras (aa 2-169), GST; purchased Reaction Biology Corporation (RBC)
T1 sequence (P01116 2-169 isoform P01116-2 G12C): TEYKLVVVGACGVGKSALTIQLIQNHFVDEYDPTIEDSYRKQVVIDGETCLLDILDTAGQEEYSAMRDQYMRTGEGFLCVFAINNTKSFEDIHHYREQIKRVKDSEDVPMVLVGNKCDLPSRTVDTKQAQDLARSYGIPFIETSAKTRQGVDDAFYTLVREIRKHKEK
Description: Exemplary compounds were tested for ability to inhibit KRas G12C.
KRAS target engagement (IC50 determination) was performed using a KRAS G12C nucleotide exchange assay (Reaction Biology Corporation). Specifically, compounds were tested against KRAS G12C in 10-point concentration IC50 mode with 3-fold serial dilution at a starting concentration of 10 μM. ARS1620 was used as a control. Compounds were pre-incubated with protein for 1 hr at RT. Parameters for the assay were:
In the method, Kras was mixed with a-GST Tb antibody (1.5× solution) and […] was delivered to reaction wells. Compounds were delivered using acoustic dispenser (Echo, Labcyte). Kras/aGST-Tb Ab/compound mixture was incubated for 1 hour at room temperature. A 3× solution of SOS1 and GTP* was prepared in reaction buffer. A […] aliquot of SOS1/GTP* solution was added to reaction well to initiate the exchange reaction. No—SOS1 reaction or max compound concentration was used as blank. IC50 determination was performed using a Sigmoidal dose response (variable slope) equation.

[3] = test system: HeLa cells; test: Cellular growth inhibition assay (CellTiter-Glo), HeLa cells; assay type: cell-based; conditions: Homo sapiens, 72 h, three days compound treatment, CellTiter-Glo 2.0, read-out: CTG HELA GI50
Summary of the method: as §1

| SMILES | GI50 [1] | pIC50 [2] | GI50 [3] |
| --- | --- | --- | --- |
| C=C(F)C(=O)N1CCN(c2nc(OC[C@@H]3CCCN3CCCOCCOCCNC(=O)c3ccc(Nc4ncc5c(n4)N(C4CCCC4)[C@H](CC)C(=O)N5C)c(OC)c3)nc3c2CCN(c2cccc4cccc(Cl)c24)C3)C[C@@H]1CC#N [Compound I-103, N-[2-[2-[3-[(2S)-2-1[[7-(8-chloro-1-naphthyl)-4-[(3S)-3-(cyanomethyl)-4-(2-fluoroprop-2-enoyl)piperazin-1-yl]-6,8-dihydro-5H-pyrido1[3,4-d]pyrimidin-2-yl]oxymethyl]pyrrolidin-1-yl]propoxy]ethoxy]ethyl]-4-[1[(7R)-8-cyclopentyl-7-ethyl-5-methyl-6-oxo-7H-pteridin-2-yl]amino]-3-methoxy-benzamide] | 500 to 1500 nM | > 7.00 |  |
| C=C(F)C(=O)N1CCN(c2nc(OC[C@@H]3CCCN3CCCOCCOCCOCCNC(=O)c3ccc(Nc4ncc5c(n4)N(C4CCCC4)[C@H](CC)C(=O)N5C)c(OC)c3)nc3c2CCN(c2cccc4cccc(Cl)c24)C3)C[C@@H]1CC#N [Compound I-104, N-[2-[2-[2-[3-[(2S)-2-[[7-(8-chloro-1-naphthyl)-4-[(3S)-3-(cyanomethyl)-4-(2-fluoroprop-2-enoyl)piperazin-1-yl]-6,8-dihydro-5H-pyrido[3,4-d]pyrimidin-2-yl]oxymethyl]pyrrolidin-1-yl]propoxy]ethoxy]ethoxy]ethyl]-4-[[(7R)-8-cyclopentyl-7-ethyl-5-methyl-6-oxo-7H-pteridin-2-yl]amino]-3-methoxy-benzamide] | 500 to 1500 nM | > 7.00 |  |
| C=C(F)C(=O)N1CCN(c2nc(OC[C@@H]3CCCN3CCOCCOCCOCCOCCOCCOCCNC(=O)c3ccc(Nc4ncc5c(n4)N(C4CCCC4)[C@H](CC)C(=O)N5C)c(OC)c3)nc3c2CCN(c2cccc4cccc(Cl)c24)C3)C[C@@H]1CC#N [Compound I-65, N-[2-[2-[2-[2-[2-[2-[2-[(2S)-2-[[7-(8-chloro-1-naphthyl)-4-[(3S)-3-(cyanomethyl)-4-(2-fluoroprop-2-enoyl)piperazin-1-yl]-6,8-dihydro-5H-pyrido1[3,4-d]pyrimidin-2-yl]oxymethyl]pyrrolidin-1-yl]ethoxy]ethoxy]ethoxy]ethoxy]ethoxy]ethoxy]ethyl]-4-[1[(7R)-8-cyclopentyl-7-ethyl-5-methyl-6-oxo-7H-pteridin-2-yl]amino]-3-methoxy-benzamide] |  | 6.00 to 7.00 |  |
| CC[C@@H]1C(=O)N(C)c2cnc(Nc3ccc(C(=O)NCCOCCOCCOCCOCCOCCOCCN(C)C/C=C/C(=O)N4CCN(c5nc(OC[C@@H]6CCCN6C)nc6c5CCN(c5cccc7cccc(Cl)c57)C6)C[C@@H]4CC#N)cc3OC)nc2N1C1CCCC1 [Compound I-109, N-[2-[2-[2-[2-[2-[2-[2-[[(E)-4-1[(2S)-4-1[7-(8-chloro-1-naphthyl)-2-[[(2S)-1-methylpyrrolidin-2-yl]methoxy]-6,8-dihydro-5Hpyrido1[3,4-d]pyrimidin-4-yl]-2-(cyanomethyl)piperazin-1-yl]-4-oxo-but-2-enyl]-methylamino]ethoxy]ethoxy]ethoxy]ethoxy]ethoxy]ethoxy]ethyl]-4-[[(7R)-8-cyclopentyl-7-ethyl-5-methyl-6-oxo-7H-pteridin-2-yl]amino]-3-methoxy-benzamide] | 1500 to 5000 nM | > 7.00 | 500 to 1500 nM |
| CN(C/C=C/C(=O)N1CCN(c2nc(OC[C@@H]3CCCN3C)nc3c2CCN(c2cccc4cccc(Cl)c24)C3)C[C@@H]1CC#N)CCOCCOCCOCCOCCOCCOCCON(C)C(=O)N1N=C(c2cc(F)ccc2F)SC1(CCCN)c1ccccc1 (stereo partly shown) [Compound I-78] | 500 to 1500 nM | > 7.00 | < 500 nM |
| CN(C/C=C/C(=O)N1CCN(c2nc(OC[C@@H]3CCCN3C)nc3c2CCN(c2cccc4cccc(Cl)c24)C3)C[C@@H]1CC#N)CCOCCOCCOCCOCCOCCOCCOCCOCCON(C)C(=O)N1N=C(c2cc(F)ccc2F)SC1(CCCN)c1ccccc1 (stereo partly shown) [Compound I-80] | 500 to 1500 nM | > 7.00 | < 500 nM |
| C=C(F)C(=O)N1CCN(c2nc(OC[C@@H]3CCCN3CCCNC(=O)c3ccc(Nc4ncc5c(n4)N(C4CCCC4)[C@H](CC)C(=O)N5C)c(OC)c3)nc3c2CCN(c2cccc4cccc(Cl)c24)C3)C[C@@H]1CC#N [Compound I-102, N-[3-[(2S)-2-[[7-(8-chloro-1-naphthyl)-4-[(3S)-3-(cyanomethyl)-4-(2-fluoroprop-2-enoyl)piperazin-1-yl]-6,8-dihydro-5H-pyrido[3,4-d]pyrimidin-2-yl]oxymethyl]pyrrolidin-1-yl]propyl]-4-[[(7R)-8-cyclopentyl-7-ethyl-5-methyl-6-oxo-7H-pteridin-2-yl]amino]-3-methoxy-benzamide] | 500 to 1500 nM | 6.00 to 7.00 |  |
| C=C(F)C(=O)N1CCN(c2nc(OC[C@@H]3CCCN3CCCN(C)C(=O)N3N=C(c4cc(F)ccc4F)S[C@@]3(CCCN)c3ccccc3)nc3c2CCN(c2cccc4cccc(Cl)c24)C3)C[C@@H]1CC#N [Compound I-97, (2S)-2-(3-aminopropyl)-N-[3-[(2S)-2-[[7-(8-chloro-1-naphthyl)-4-[(3S)-3-(cyanomethyl)-4-(2-fluoroprop-2-enoyl)piperazin-1-yl]-6,8-dihydro-SH-pyrido[3,4-d]pyrimidin-2-yl]oxymethyl]pyrrolidin-1-yl]propyl]-5-(2,5-difluorophenyl)-N-methyl-2-phenyl-1,3,4-thiadiazole-3-carboxamide] |  | > 7.00 | 500 to 1500 nM |
| C=C(F)C(=O)N1CCN(c2nc(OC[C@@H]3CCCN3CCCOCCOCCOCCOCCNC(=O)c3ccc(Nc4ncc5c(n4)N(C4CCCC4)[C@H](CC)C(=O)N5C)c(OC)c3)nc3c2CCN(c2cccc4cccc(Cl)c24)C3)C[C@@H]1CC#N [Compound I-105, N-[2-[2-[2-[2-[3-[(2S)-2-[[7-(8-chloro-1-naphthyl)-4-[(3S)-3-(cyanomethyl)-4-(2-fluoroprop-2-enoyl)piperazin-1-yl]-6,8-dihydro-5H-pyrido[3,4-d]pyrimidin-2-yl]oxymethyl]pyrrolidin-1-yl]propoxy]ethoxy]ethoxy]ethoxy]ethyl]-4-[[(7R)-8-cyclopentyl-7-ethyl-5-methyl-6-oxo-7H-pteridin-2-yl]amino]-3-methoxy-benzamide] | 500 to 1500 nM | > 7.00 |  |
| C=C(F)C(=O)N1CCN(c2nc(OCC3CCCN3CCOCCOCCOCCOCCOCCOCCOCCOCCNC(=O)c3cccc(-c4ccc5c(N6CCOCC6C)nc(N6CCOCC6C)nc5n4)c3)nc3c2CCN(c2cccc4cccc(Cl)c24)C3)CC1CC#N [Compound I-21, 3-[2,4-bis[(3R)-3-methylmorpholin-4-yl]pyrido[2,3-d]pyrimidin-7-yl]-N-[2-[2-[2-[2-[2-[2-[2-[2-[2-[(2S)-2-[[7-(8-chloro-1-naphthyl)-4-[(3S)-3-(cyanomethyl)-4-(2-fluoroprop-2-enoyl)piperazin-1-yl]-6,8-dihydro-SH-pyrido[3,4-d]pyrimidin-2-yl]oxymethyl]pyrrolidin-1-yl]ethoxy]ethoxy]ethoxy]ethoxy]ethoxy]ethoxy]ethoxy]ethoxy]ethyl]benzamide] |  | 6.00 to 7.00 |  |
| Cc1ccnc(C(C)C)c1-n1c(=O)nc(N2CCN(C(=O)/C=C/CN(C)CCOCCOCCOCCOCCOCCOCCON(C)C(=O)N3N=C(c4cc(F)ccc4F)SC3(CCCN)c3ccccc3)C[C@@H]2C)c2cc(F)c(-c3c(O)cccc3F)nc21 (stereo partly shown) [Compound I-77] |  | 5.30 to 6.00 |  |
| Cc1ccnc(C(C)C)c1-n1c(=O)nc(N2CCN(C(=O)/C=C/CN(C)CCOCCOCCOCCOCCOCCOCCOCCOCCON(C)C(=O)N3N=C(c4cc(F)ccc4F)SC3(CCCN)c3ccccc3)C[C@@H]2C)c2cc(F)c(-c3c(O)cccc3F)nc21 (stereo partly shown) [Compound I-79] |  | 5.30 to 6.00 |  |
| C=C(F)C(=O)N1CCN(c2nc(OC[C@@H]3CCCN3CCOCCOCCNC(=O)c3ccc(Nc4ncc5c(n4)N(C4CCCC4)[C@H](CC)C(=O)N5C)c(OC)c3)nc3c2CCN(c2cccc4cccc(Cl)c24)C3)C[C@@H]1CC#N [Compound I-63, N-(2-(2-(2-((S)-2-(((7-(8-chloronaphthalen-1-yl)-4-((S)-3-(cyanomethyl)-4-(2-fluoroacryloyl)piperazin-1-yl)-5,6,7,8-tetrahydropyrido[3,4-d]pyrimidin-2-yl)oxy)methyl)pyrrolidin-1-yl)ethoxy)ethoxy)ethyl)-4-(((R)-8-cyclopentyl-7-ethyl-5-methyl-6-oxo-5,6,7,8-tetrahydropteridin-2-yl)amino)-3-methoxybenzamide] |  | > 7.00 |  |
| CN(C/C=C/C(=O)N1CCN(c2nc(OC[C@@H]3CCCN3C)nc3c2CCN(c2cccc4cccc(Cl)c24)C3)C[C@@H]1CC#N)CCOCCOCCOCCOCCON(C)C(=O)N1N=C(c2cc(F)ccc2F)SC1(CCCN)c1ccccc1 (stereo partly drawn) [Compound I-96, 2-(3-aminopropyl)-N-[2-[2-[2-[2-[2-[[(E)-4-[(2S)-4-[7-(8-chloro-1-naphthyl)-2-[[(2S)-1-methylpyrrolidin-2-yl]methoxy]-6,8-dihydro-5H-pyrido[3,4-d]pyrimidin-4-yl]-2-(cyanomethyl)piperazin-1-yl]-4-oxo-but-2-enyl]-methylamino]ethoxy]ethoxy]ethoxy]ethoxy]ethoxy]-5-(2,5-difluorophenyl)-N-methyl-2-phenyl-1,3,4-thiadiazole-3-carboxamide] |  | > 7.00 |  |
